The values that follow come from patent US20100068743A1, “Method for predicting response of cancer patient to anticancer drug treatment” (John Wayne Cancer Institute and Sysmex Corporation, priority 2008, published 2010).

In test [1] the test system is tumor tissue of breast cancer patients. Put plainly: Reduction rate of tumor after chemotherapy (tumor size before and after) in breast cancer patients. It is filed as in vivo, human. The note with it: individual breast cancer patient, after receiving the chemotherapy prescribed in the regimen. As to the method: Next, CDK1 expression level, CDK1 active value, CDK2 expression level, CDK2 active value of malignant tumors collected by needle biopsy from breast cancer patients before receiving chemotherapy are measured, and CDK1 specific activity and CDK2 specific activity are obtained. Meanwhile, the reduction rate of tumor is obtained by measuring a size of tumor tissue of each patient before and after the chemotherapy. In Table 1, CDK1 SA denotes CDK1 specific activity, CDK2SA denotes CDK2 specific activity, […] denotes cell cycle profile score, and reduction rate of tumor denotes reduction rate of tumors after receiving the chemotherapy prescribed in the regimen. In the column of the regimen, “wT” means paclitaxel, “FEC” means fluorouracil, cyclophosphamide, epirubicin, “CE” means cyclophosphamide, epirubicin, “Doce” means docetaxel, “ZL” means zoladex, “TM” means tamoxifen, and “UFT” means uracil, tegafur.

In test [2] the test system is malignant tumors of breast cancer patients. Put plainly: Pathological complete response (pCR) attained by chemotherapy in breast cancer patients. It is filed as in vivo, human. The following applies: individual breast cancer patient, after chemotherapy regimen; 1 = pathological complete response. How it is done:
For breast cancer patients listed in Table 3 shown below, CDK1 expression level, CDK1 active value, CDK2 expression level, CDK2 active value of malignant tumors collected by needle biopsy before receiving chemotherapy are measured, and CDK1 specific activity and CDK2 specific activity are obtained. Further for each of patients shown in Table 3, whether or not pathological complete response (pCR) has been attained by the chemotherapy is shown in Table 3. In the column “pCR” in Table 3, “1” denotes pathological complete response.

With `CC(=O)O[C@H]1C(=O)[C@@]2(C)[C@H]([C@H](OC(=O)c3ccccc3)[C@]3(O)C[C@H](OC(=O)[C@H](O)[C@@H](NC(=O)c4ccccc4)c4ccccc4)C(C)=C1C3(C)C)[C@]1(OC(C)=O)CO[C@@H]1C[C@@H]2O` [wT, paclitaxel], in test [1], the “Reduction rate of tumor” value turned out to be 70%. The same compound registered a pCR in test [2] of 0.
